According to patent publication US20130274174A1, “THERAPEUTIC COMBINATION OF DAPTOMYCIN AND PROTEIN SYNTHESIS INHIBITOR ANTIBIOTIC, AND METHODS OF USE” (priority 2011, published 2013):
Values after ≈ are worked out from the molar mass of the structure shown. “Also recorded” adds a separate entry of the source. Read-outs that look alike come from different tables or passages of the source.

Legend:
[1] = system: S. aureus MW2 (NRS123); experiment: microbe, parasite or virus in culture; assay type: cell-based, Staphylococcus aureus; conditions: for MIC: Staphylococcus aureus
Procedure: S. aureus strains MW2 (NARSA collection clinical MRSA isolate, NRS123) and ATCC 33591 (MRSA strain from the American Type Culture Collection) were cultured on Mueller-Hinton II cation adjusted (MHA) medium in 90×90 mm square petri dishes. MHA containing ¼ of the MIC value of TR-700, TR-705, LZD, TIA, CLI, TET, or VAN, TMP/SMX throughout the plate and a continuous linear gradient of DAP across the plate was used to passage MW2. ATCC 33591 was passaged with ¼ of the MIC of a subset of these drugs (TR-700, TMP/SMX, and VAN). A DAP-only control passage group was included for both strains. DAP gradients were created by pouring two layers of media as previously described (Bryson, V., et al. 1952. Microbial selection. Science 116:45-51; Locke, J. B., et al., 2009. Antimicrob. Agents Chemother. 53:5265-5274). Following each passage the leading edge of growth (i.e., most resistant cells) was resuspended in phosphate buffered saline (PBS) to an absorbance of 0.30 OD600 and a 100 μl aliquot containing ˜3.0×10^7 CFU (colony-forming units) was spread on to the proceeding passage plate. The starting maximal DAP concentration was 2 μg/ml and was increased in two-fold increments when the leading edge of growth surpassed the half way point on the plate. A glycerol stock was made from the total cell population for each culture condition for each passage. Thirty serial passages were completed for each treatment group.

[2] = system: S. aureus; conditions: Locke et al. 2009; cited from earlier work
[3] = system: S. aureus; conditions: co-selection with a subinhibitory concentration; Berti et al. 2012; cited from earlier work
[4] = system: Staphylococcus aureus 100 (ATCC 29213); experiment: FIC checkerboard broth microdilution, control combinations; assay type: cell-based; conditions: ATCC29213, agent alone, repeated determinations by date
Procedure: Test articles of stock solutions of daptomycin (Cubist, lot MCB2007) and TR-700 were prepared at 40 times the final target concentration in DMSO:water (1:1). DMSO was added first, the solutions were allowed to stand for 60 minutes and then the water was added. […] The final DMSO concentration was 2.5%. The final drug concentrations in the FIC assay plates were set to bracket the MIC value of each test article for each test organism, unless the strain was totally resistant to the test article.
The test organisms were originally received from clinical sources, or from the American Type Culture Collection. […] Aliquots were then frozen at −80° C.
The broth was prepared at 1.05× normal weight/volume to offset the 5% volume of the drugs in the final test plates.
Antimicrob. Agents Chemother.
These plates were used to prepare the drug “mother plates” which provided the serial drug dilutions for the drug combination plates.
The “daughter plates” were loaded with 180 μL of test medium using the Multidrop 384. Then, the Multimek 96 was used to transfer 10 μL of drug solution from each well of the drug combination mother plate to each corresponding well of the daughter plate in a single step.

With `CC(=O)NC[C@H]1CN(c2ccc(N3CCOCC3)c(F)c2)C(=O)O1` [LZD, linezolid] the MIC ([1]; NRS123, passage 0, NRS123 WT) was 2 µg/mL (≈ 5.93 µM), the MIC ([1]; NRS123, passage 5, selection group DAP) was 2 µg/mL (≈ 5.93 µM) and the MIC ([1]; NRS123, passage 5, selection group DAP + CLI) was 2 µg/mL. It also gave an MIC ([1]; NRS123, passage 5, selection group DAP + LZD) of 2 µg/mL, an MIC ([1]; NRS123, passage 5, selection group DAP + TET) of 2 µg/mL and an MIC ([1]; NRS123, passage 5, selection group DAP + TIA) of 2 µg/mL. For the same compound, the MIC ([1]; NRS123, passage 5, selection group DAP + TMP/SMX) was 1 µg/mL, the MIC ([1]; NRS123, passage 5, selection group DAP + TR-700) was 2 µg/mL and the MIC ([1]; NRS123, passage 5, selection group DAP + TR-705) was 2 µg/mL. For the same compound, the MIC ([1]; NRS123, passage 5, selection group DAP + VAN) was 1 µg/mL, the MIC ([1]; NRS123, passage 10, selection group DAP) was 2 µg/mL (≈ 5.93 µM) and the MIC ([1]; NRS123, passage 10, selection group DAP + CLI) was 2 µg/mL. The MIC ([1]; NRS123, passage 10, selection group DAP + LZD) was 2 µg/mL, the MIC ([1]; NRS123, passage 10, selection group DAP + TET) was 2 µg/mL and the MIC ([1]; NRS123, passage 10, selection group DAP + TIA) was 2 µg/mL. For the same compound, the MIC ([1]; NRS123, passage 10, selection group DAP + TMP/SMX) was 2 µg/mL, the MIC ([1]; NRS123, passage 10, selection group DAP + TR-700) was 2 µg/mL and the MIC ([1]; NRS123, passage 10, selection group DAP + TR-705) was 2 µg/mL. The MIC ([1]; NRS123, passage 10, selection group DAP + VAN) was 1 µg/mL, the MIC ([1]; NRS123, passage 15, selection group DAP) was 1 µg/mL (≈ 2.96 µM) and the MIC ([1]; NRS123, passage 15, selection group DAP + CLI) was 2 µg/mL. For the same compound, the MIC ([1]; NRS123, passage 15, selection group DAP + LZD) was 2 µg/mL, the MIC ([1]; NRS123, passage 15, selection group DAP + TET) was 1 µg/mL and the MIC ([1]; NRS123, passage 15, selection group DAP + TIA) was 2 µg/mL. The MIC ([1]; NRS123, passage 15, selection group DAP + TMP/SMX) was 2 µg/mL, the MIC ([1]; NRS123, passage 15, selection group DAP + TR-700) was 2 µg/mL and the MIC ([1]; NRS123, passage 15, selection group DAP + TR-705) was 2 µg/mL. For the same compound, the MIC ([1]; NRS123, passage 15, selection group DAP + VAN) was 1 µg/mL, the MIC ([1]; NRS123, passage 20, selection group DAP) was 2 µg/mL (≈ 5.93 µM) and the MIC ([1]; NRS123, passage 20, selection group DAP + CLI) was 2 µg/mL. The MIC ([1]; NRS123, passage 20, selection group DAP + LZD) was 2 µg/mL, the MIC ([1]; NRS123, passage 20, selection group DAP + TET) was 1 µg/mL and the MIC ([1]; NRS123, passage 20, selection group DAP + TIA) was 2 µg/mL. For the same compound, the MIC ([1]; NRS123, passage 20, selection group DAP + TMP/SMX) was 2 µg/mL, the MIC ([1]; NRS123, passage 20, selection group DAP + TR-700) was 2 µg/mL and the MIC ([1]; NRS123, passage 20, selection group DAP + TR-705) was 2 µg/mL. The MIC ([1]; NRS123, passage 20, selection group DAP + VAN) was 1 µg/mL, the MIC ([1]; NRS123, passage 25, selection group DAP) was 1 µg/mL (≈ 2.96 µM) and the MIC ([1]; NRS123, passage 25, selection group DAP + CLI) was 2 µg/mL. For the same compound, the MIC ([1]; NRS123, passage 25, selection group DAP + LZD) was 1 µg/mL, the MIC ([1]; NRS123, passage 25, selection group DAP + TET) was 1 µg/mL and the MIC ([1]; NRS123, passage 25, selection group DAP + TIA) was 2 µg/mL. It also gave an MIC ([1]; NRS123, passage 25, selection group DAP + TMP/SMX) of 2 µg/mL, an MIC ([1]; NRS123, passage 25, selection group DAP + TR-700) of 2 µg/mL and an MIC ([1]; NRS123, passage 25, selection group DAP + TR-705) of 2 µg/mL. It also gave an MIC ([1]; NRS123, passage 25, selection group DAP + VAN) of 1 µg/mL, an MIC ([1]; NRS123, passage 30, selection group DAP) of 1 µg/mL (≈ 2.96 µM) and an MIC ([1]; NRS123, passage 30, selection group DAP + CLI) of 2 µg/mL. The MIC ([1]; NRS123, passage 30, selection group DAP + LZD) was 2 µg/mL, the MIC ([1]; NRS123, passage 30, selection group DAP + TET) was 1 µg/mL and the MIC ([1]; NRS123, passage 30, selection group DAP + TIA) was 2 µg/mL. For the same compound, the MIC ([1]; NRS123, passage 30, selection group DAP + TMP/SMX) was 2 µg/mL, the MIC ([1]; NRS123, passage 30, selection group DAP + TR-700) was 2 µg/mL and the MIC ([1]; NRS123, passage 30, selection group DAP + TR-705) was 2 µg/mL. For the same compound, the MIC ([1]; NRS123, passage 30, selection group DAP + VAN) was 2 µg/mL, the MIC ([1]; NRS123, read-out: DAP MIC by the end of the experiment (selection of DAP^ns strains), MW2, passaged with DAP alone or with co-selecting agent at ¼ MIC, CLSI breakpoint) was > 1 µg/mL and the “effect on preventing the emergence of DAP^ns” value ([1]; co-selection at ¼ MIC, VAN: both backgrounds) was “did not prevent the emergence of DAP non-susceptibility; also recorded: no effect on preventing DAP^ns”. For the same compound, the “susceptibility to the co-selecting agent in its co-selection group” value ([1]; over the course of 30 passages) was “no increases in LZD MIC values over WT were observed”, the “S. aureus mutation frequency higher than for TR-700” value [2] was > 10 fold and the “effect on preventing the emergence of DAP^ns S. aureus” value [3] was “did not have any effect on preventing the emergence of DAP^ns S. aureus”.
Work on `O=C(O)[C@H]1/C(=C/CO)O[C@@H]2CC(=O)N21` [Clavulanate] yielded an MIC [4] of 16 µg/mL.
